Test results taken from article PMC6053381, “Novel 2-phenyloxypyrimidine derivative induces apoptosis and autophagy via inhibiting PI3K pathway and activating MAPK/ERK signaling in hepatocellular carcinoma cells” (Scientific Reports, 2018).

How the values were obtained:
[1] = molecular target: PDGFRα (Homo sapiens, UniProt P16234); assay: PDGFR kinase assay, Caliper microfluidic mobility shift; type: biochemical; settings: compound at 1 µM; averages of two separate experiments
Experimental: (§1) In vitro inhibitory activities of all compounds at 1 μM against PDGFRα and PDGFRβ were evaluated using Caliper microfluidic mobility shift technology. […] At the same concentration, only E5 inhibited greater than 50% of PDGFRβ activity (Fig. 2B).
(§2) PDGFR kinase activity was measured using Caliper microfluidic mobility shift technology. Briefly, 2 μL compound solution (25 μM) in 25% DMSO per well were added into the 384 well microtiter plates. Then, 10 μL per well of enzyme solution (100 mM HEPES, 10 mM MgCl2, Brij35 (30%) 100 μL, 1 mM DTT, 20 ng enzyme) was added. After a brief centrifugation at 1,000 rpm, the kinase reactions were started by addition of 38 μL per well of peptide/ATP-solution (40 μM ATP, 6.5 μM peptide 5′-FAM-KKKKEEIYFFF-NH2, Tris-HCl buffer, pH 7.0) incubated at 30 °C for 60 min and stopped by the addition of 20 μL 35 mM EDTA per well. The electrophoretic separation of the phosphorylated and non-phosphorylated peptides was then carried out on LabChip EZ Reader II (Caliper Life Sciences). All other kinase reactions were carried out as previously reported using the Kinase-Glo Plus or ADP-Glo assay. Kinase inhibition rates were calculated per manufacturer’s instructions.

[2] = molecular target: PDGFRβ (Homo sapiens, UniProt P09619); assay: as above; type: biochemical; settings: compound at 1 µM; averages of two separate experiments
Experimental: as §1, §2

[3] = test system: BEL7404; assay: CellTiter-Glo luminescent cell viability assay; type: cell-based; settings: 120 h incubation, read-out: Anti-proliferative activity IC50 BEL7404
Text: (§3) The in vitro antitumor activity of all compounds was screened against six HCC cell lines by CellTiter-Glo luminescent cell viability assay as described earlier. […] After a comprehensive assessment of PDGFR inhibition, cellular activity against HCC cells as well as potential druggability, E5 was chosen to investigate its kinase profiling, antitumor activity and molecular mechanism in the following study. […]
(§4) authenticated by using short tandem repeat (STR) matching analysis. No mycoplasma contamination was detected.
(§5) CellTiter-Glo luminescent cell viability assay
(§6) For experiments hepatocellular carcinoma cells were seeded at 4000 cells per well in 96-well plates. After overnight incubation, solution of compounds in DMSO at various concentrations were added to the cells and further incubated for 120 h. Cell viability was measured with the CellTiter-Glo Luminescent Cell Viability Assay (Promega) according to the manufacturer’s instructions. Luminescence was measured using an EnVision Multilabel Plate Reader (Perkin-Elmer). The cytotoxicity of the compounds was expressed as the percent age of luminescence relative to that of untreated cells . The concentration of compound producing 50% of cell proliferation (IC50) was calculated by nonlinear regression analysis of the response-concentration (log) curve, using the Graph-Pad Prism program package (Graph Pad Software; San Diego, CA). Results are expressed as the means of two […] experiments

[4] = test system: Hep3B; assay: CellTiter-Glo luminescent cell viability assay; type: cell-based; settings: 120 h incubation, read-out: Anti-proliferative activity IC50 Hep3B
Text: as §3, §4, §5, §6

[5] = test system: MHCC97-L; assay: CellTiter-Glo luminescent cell viability assay; type: cell-based; settings: 120 h incubation, read-out: Anti-proliferative activity IC50 MHCC97-L
Text: as §3, §4, §5, §6

[6] = test system: QGY-7703; assay: CellTiter-Glo luminescent cell viability assay; type: cell-based; settings: 120 h incubation, read-out: Anti-proliferative activity IC50 QGY-7703
Text: as §3, §4, §5, §6

[7] = test system: SMMC-7721; assay: CellTiter-Glo luminescent cell viability assay; type: cell-based; settings: 120 h incubation, read-out: Anti-proliferative activity IC50 SMMC-7721
Text: as §3, §4, §5, §6

[8] = test system: SNU368; assay: CellTiter-Glo luminescent cell viability assay; type: cell-based; settings: 120 h incubation, read-out: Anti-proliferative activity IC50 SNU368
Text: as §3, §4, §5, §6

Chain of PDGFRβ (P09619 33-1106): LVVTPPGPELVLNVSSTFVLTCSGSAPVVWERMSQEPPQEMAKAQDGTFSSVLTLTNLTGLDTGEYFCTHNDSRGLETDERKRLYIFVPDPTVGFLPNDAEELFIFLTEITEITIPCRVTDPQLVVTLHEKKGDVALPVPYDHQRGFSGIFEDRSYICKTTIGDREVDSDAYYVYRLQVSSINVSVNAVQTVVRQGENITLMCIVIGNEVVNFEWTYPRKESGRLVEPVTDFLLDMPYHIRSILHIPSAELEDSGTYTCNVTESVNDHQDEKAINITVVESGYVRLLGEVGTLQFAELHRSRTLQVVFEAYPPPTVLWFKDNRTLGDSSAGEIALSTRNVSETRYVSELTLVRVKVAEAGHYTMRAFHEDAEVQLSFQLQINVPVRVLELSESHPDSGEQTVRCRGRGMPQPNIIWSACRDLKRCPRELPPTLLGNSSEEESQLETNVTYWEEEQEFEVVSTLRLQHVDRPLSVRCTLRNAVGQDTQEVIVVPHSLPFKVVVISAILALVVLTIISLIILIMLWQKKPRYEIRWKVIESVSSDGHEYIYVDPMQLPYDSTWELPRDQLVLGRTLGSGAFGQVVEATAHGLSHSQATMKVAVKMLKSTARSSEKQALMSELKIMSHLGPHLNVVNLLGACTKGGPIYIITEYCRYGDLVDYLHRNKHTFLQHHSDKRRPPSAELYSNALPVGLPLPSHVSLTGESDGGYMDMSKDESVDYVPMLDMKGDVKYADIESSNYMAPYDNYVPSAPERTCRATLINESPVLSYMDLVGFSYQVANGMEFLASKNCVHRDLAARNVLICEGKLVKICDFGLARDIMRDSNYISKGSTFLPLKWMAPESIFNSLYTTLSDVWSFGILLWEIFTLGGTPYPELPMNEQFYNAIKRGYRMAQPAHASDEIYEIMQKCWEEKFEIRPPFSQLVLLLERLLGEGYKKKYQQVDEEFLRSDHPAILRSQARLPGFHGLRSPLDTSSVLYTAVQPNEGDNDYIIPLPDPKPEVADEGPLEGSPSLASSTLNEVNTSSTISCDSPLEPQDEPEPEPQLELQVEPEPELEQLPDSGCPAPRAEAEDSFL
Chain of PDGFRα (P16234 24-1089): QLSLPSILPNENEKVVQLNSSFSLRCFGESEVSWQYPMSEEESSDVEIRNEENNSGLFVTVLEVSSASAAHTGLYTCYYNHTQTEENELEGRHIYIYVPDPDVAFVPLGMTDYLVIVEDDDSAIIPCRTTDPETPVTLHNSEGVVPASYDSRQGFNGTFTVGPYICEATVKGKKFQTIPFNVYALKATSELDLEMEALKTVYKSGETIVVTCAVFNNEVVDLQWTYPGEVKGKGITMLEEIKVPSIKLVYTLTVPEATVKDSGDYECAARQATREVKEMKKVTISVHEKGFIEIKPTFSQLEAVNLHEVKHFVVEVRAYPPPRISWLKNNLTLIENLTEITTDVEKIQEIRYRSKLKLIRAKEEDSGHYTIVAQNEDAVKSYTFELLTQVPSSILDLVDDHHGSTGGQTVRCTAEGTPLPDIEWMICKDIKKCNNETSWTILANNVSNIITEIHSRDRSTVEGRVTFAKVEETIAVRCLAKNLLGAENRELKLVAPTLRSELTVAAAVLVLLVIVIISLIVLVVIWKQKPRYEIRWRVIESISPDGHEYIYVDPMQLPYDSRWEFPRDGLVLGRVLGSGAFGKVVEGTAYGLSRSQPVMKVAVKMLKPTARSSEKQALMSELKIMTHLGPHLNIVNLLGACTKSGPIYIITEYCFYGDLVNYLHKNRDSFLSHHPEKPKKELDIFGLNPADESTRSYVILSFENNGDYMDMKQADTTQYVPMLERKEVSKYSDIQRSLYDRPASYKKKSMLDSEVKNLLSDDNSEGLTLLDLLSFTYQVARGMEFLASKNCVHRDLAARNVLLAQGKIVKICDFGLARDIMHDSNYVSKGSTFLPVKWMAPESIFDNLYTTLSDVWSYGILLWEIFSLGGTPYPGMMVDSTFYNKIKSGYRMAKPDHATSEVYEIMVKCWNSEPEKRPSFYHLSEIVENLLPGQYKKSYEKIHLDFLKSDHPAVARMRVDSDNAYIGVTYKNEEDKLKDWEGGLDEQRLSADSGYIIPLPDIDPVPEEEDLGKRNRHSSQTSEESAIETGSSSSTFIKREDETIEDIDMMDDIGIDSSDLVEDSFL

| Compound | Inhibition effect (%) PDGFRα [1] | Inhibition effect (%) PDGFRβ [2] | IC50 [3] | IC50 [4] | IC50 [7] | IC50 [8] | IC50 [5] | IC50 [6] |
| --- | --- | --- | --- | --- | --- | --- | --- | --- |
| Cc1ccc(NC(=O)c2ccncc2)cc1Oc1nccc(-c2ccccc2)n1 [B12] | 25.66% | 20.65% | 13.4 µM | 17.7 µM | 8.8 µM | 18 µM | 44 µM | 27.6 µM |
| CC(=O)Nc1ccc(C)c(Oc2nccc(-c3cccc4ccccc34)n2)c1 [C1] | 33.27% | 1.32% | 36.2 µM | 32 µM | 21 µM | 43 µM | 109 µM | 91.6 µM |
| CCC(=O)Nc1ccc(C)c(Oc2nccc(-c3cccc4ccccc34)n2)c1 [C2] | 33.78% | 2.07% | 48.2 µM | 36.3 µM | 29.5 µM | 55.9 µM | 111 µM | 120 µM |
| Cc1ccc(NC(=O)c2ccco2)cc1Oc1nccc(-c2cccc3ccccc23)n1 [C3] | 46.46% | 11.61% | 39.7 µM | 33.5 µM | 27.2 µM | 37.9 µM | 91 µM | 70.7 µM |
| Cc1ccc(NC(=O)c2ccoc2)cc1Oc1nccc(-c2cccc3ccccc23)n1 [C4] | 13.73% | 2.83% | 8.8 µM | 22.9 µM | 12 µM | 15.8 µM | 96.4 µM | 14.9 µM |
| Cc1ccc(NC(=O)c2cccs2)cc1Oc1nccc(-c2cccc3ccccc23)n1 [C5] | 16.27% | 5.08% | 20.8 µM | 17 µM | 16.8 µM | 28.4 µM | 28 µM | 35.2 µM |
| Cc1ccc(NC(=O)c2ccc(Cl)cc2)cc1Oc1nccc(-c2cccc3ccccc23)n1 [C6] | 24.14% | -0.94% | 6.7 µM | 19.7 µM | 14.3 µM | 17.2 µM | > 200 µM | 19.2 µM |

The next lines start with results.

| Inhibition effect (%) PDGFRα [1] | Inhibition effect (%) PDGFRβ [2] | IC50 [3] | IC50 [4] | IC50 [7] | IC50 [8] | Compound | IC50 [5] | IC50 [6] |
| --- | --- | --- | --- | --- | --- | --- | --- | --- |
| 13.74% | 28.93% | 48.7 µM | 11.4 µM | 1.5 µM | 37.3 µM | Cc1ccc(NC(=O)c2ccccc2)cc1Oc1nccc(-c2ccco2)n1 [D1] | 1.6 µM | 2.5 µM |
| 36.82% | 46.75% | 32.8 µM | 28.3 µM | 21.6 µM | 43.8 µM | Cc1ccc(NC(=O)Cc2ccccc2)cc1Oc1nccc(-c2ccco2)n1 [D2] | 26.4 µM | 42.2 µM |
| 22.61% | 37.72% | 17.6 µM | 9.7 µM | 7.9 µM | 22.2 µM | COc1ccc(C(=O)Nc2ccc(C)c(Oc3nccc(-c4ccco4)n3)c2)cc1 [D3] | 8.5 µM | 15.7 µM |
| 45.70% | 46.00% | 4.5 µM | 6 µM | 3.7 µM | 23.2 µM | Cc1cccc(C(=O)Nc2ccc(C)c(Oc3nccc(-c4ccco4)n3)c2)c1 [D4] | 3.4 µM | 7.5 µM |
| 51.79% | 43.49% | 12.4 µM | 11.2 µM | 12.4 µM | 24 µM | Cc1ccc(NC(=O)c2cccc(Cl)c2)cc1Oc1nccc(-c2ccco2)n1 [D5] | 14.7 µM | 22.5 µM |
| 33.02% | 37.47% | 10.9 µM | 7.3 µM | 8.2 µM | 12.7 µM | Cc1ccc(NC(=O)c2ccc(Cl)cc2)cc1Oc1nccc(-c2ccco2)n1 [D6] | 24.6 µM | 25.8 µM |
| 1.56% | 1.82% | 10.1 µM | 86.8 µM | 0.3 µM | 8.5 µM | CC(=O)Nc1ccc(C)c(Oc2nccc(-c3cc4ccccc4o3)n2)c1 [E1] | 5.7 µM | 0.3 µM |
| 19.06% | 10.10% | 8.2 µM | 74.6 µM | 0.2 µM | 13.2 µM | CCC(=O)Nc1ccc(C)c(Oc2nccc(-c3cc4ccccc4o3)n2)c1 [E2] | 5.5 µM | 0.4 µM |
| -2.00% | 3.83% | 1.2 µM | 125 µM | 0.7 µM | 1.3 µM | Cc1ccc(NC(=O)c2ccco2)cc1Oc1nccc(-c2cc3ccccc3o2)n1 [E3] | 9.6 µM | 0.7 µM |
| -1.24% | -0.44% | 38.1 µM | 11.7 µM | 27.7 µM | 31.6 µM | Cc1ccc(NC(=O)CN2CCN(C)CC2)cc1Oc1nccc(-c2cc3ccccc3o2)n1 [E6] | 16.7 µM | 29.5 µM |
| 18.56% | 19.39% | 5.9 µM | 9 µM | 4.6 µM | 14.7 µM | Cc1ccc(NC(=O)CN2CCOCC2)cc1Oc1nccc(-c2cc3ccccc3o2)n1 [E7] | 59.1 µM | 10.3 µM |
| 26.16% | 14.62% | 2.8 µM | 3.8 µM | 2.5 µM | 6.3 µM | Cc1ccc(NC(=O)CO)cc1Oc1nccc(-c2cc3ccccc3o2)n1 [E8] | 13.6 µM | 3.3 µM |
| 6.37% | 2.32% | 37.1 µM | 31 µM | 34.5 µM | 29.3 µM | CC(=O)Nc1ccc(C)c(Oc2nccc(-c3cc4ccccc4n3C)n2)c1 [F1] | 48.4 µM | 195 µM |
| 12.21% | -4.46% | 19 µM | 33.8 µM | 27.9 µM | 29.1 µM | CCC(=O)Nc1ccc(C)c(Oc2nccc(-c3cc4ccccc4n3C)n2)c1 [F2] | 31.8 µM | 51.9 µM |
| 24.14% | 25.67% | 15.6 µM | 41.8 µM | 18.4 µM | 26.5 µM | Cc1ccc(NC(=O)c2ccco2)cc1Oc1nccc(-c2cc3ccccc3n2C)n1 [F3] | > 200 µM | 97.7 µM |
